In patent publication US3962243A (Laboratories Made, S.A., priority 1974, dated 1976):

Tests used:
[1] = tested on: bronchial spasm; assay: Bronchial spasmolytic action; type: in vivo
[2] = tested on: mice; assay: Sub-acute and chronic toxicity; type: in vivo; conditions: administration to mice over periods of 2 and 6 months
[3] = tested on: rat complete brain homogenates; assay: Action on cerebral oxidative activity (oxygen consumption); conditions: 1 × 10^-^3 and 1 × 10^-^4 M

“2-[(2-dimethylaminoethyl) (p-methoxybenzyl)amino]-pyridine 1,2,3,6-tetrahydro-1,3-dimethyl-2,6-dioxopurin-7-acetate” was tested, and the “duration of activity, bronchial spasmolytic action” value ([1]; in vivo) was “over 5 hours”, the “action against bronchial spasm by route” value ([1]; oral, rectal, intramuscular and intravenous) was “Effective action against bronchial spasm is obtainable by all routes” and the “active dose, bronchial spasmolytic action” value ([1]; very small doses) was 6 µg/kg. For the same substance, the “microscopic or macroscopic organ alteration” value [2] was “No microscopic or macroscopic organ alteration” and the “inhibition of the oxygen consumption” value [3] was “strong inhibition of the oxygen consumption”.
